System: Mino cells
Test: Pull-down proteomics in Mino cells
Assay type: cell-based, human
Protocol: The cells were lysed and “clicked” with biotin-azide, and the samples were incubated at room temperature for 1 h. The samples were then precipitated with methanol–chloroform (1 mL of methanol, 250 μL of chloroform, 750 μL of water), washed with 1 mL of methanol, and air-dried. The samples were solubilized, bound to streptavidin agarose beads in PBS for 3 h at 25 °C. The beads were washed, centrifuged, resuspended in Tris 50 mM pH 8, and transferred to a clean Eppendorf tube. After this, the bound proteins were eluted by boiling with 5% SDS then reduced with DTT, alkylated with iodoacetamide, and digested with trypsin. The samples were run on LC/MS/MS. The detailed procedure is available in the Supplementary Methods Section. […]
Pull-down proteomics experiments
1b or DMSO. The cells were spun down, washed with cold PBS and frozen. Then, each sample was lysed in 200 ul of RIPA for 15 minutes on ice and centrifuged at 20000 g at 4 °C. The protein in the supernatant was quantified using BCA. For each sample, […] of 1.65 mg/ml was prepared.
At this point, 5 ul of 5 mM biotin azide and 9 ul of 100 mM CuSO4:THPTA complex were added.
The click reaction was initiated by the addition of 7.5 ul of 150 mM sodium ascorbate, and the samples are incubated at room temperature for 1 hour. The samples were then precipitated with methanol: chloroform (1 ml methanol, 250 l chloroform, 750 l water), washed with 1 ml of methanol, and air dried. The dry pellet was resuspended in 1.2% SDS in PBS (250 l), sonicated as described before, and heated to 90 °C for 5 minutes. The samples were then diluted to 1.5 ml with PBS, and 50 ul of streptavidin agarose beads, prewashed with 0.2% SDS in PBS, were added, followed by 3 hour incubation at room temperature. Following the incubation, the beads were centrifuged 2 minutes 2000 g, and washed 4 times, with the following buffers (4 ml in each wash):
2% SDS; 0.1% sodium deoxycholate, 1% Triton X-100, 0.5 M NaCl, 1 mM EDTA, 50 mM HEPES pH = 7.5; 0.25 M NaCl, 0.5% IGEPAL, 0.5% sodium deoxycholate, 1 mM EDTA, 10 mM Tris pH = 8.1; 50 mM Tris pH = 7.4, 50 mM NaCl. The beads were then resuspended in Tris 50 mM pH = 8 and transferred to a clean Eppendorf tube.
At this point, the buffer was removed to leave a volume of 100 ul, and 100 ul of Tris 50 mM pH 8 + 10% SDS was added, and the samples were heated to 96 °C for 5 minutes. The samples were then centrifuged and the denatured, eluted proteins were transferred to new tubes. Then, 7.5 ul of 0.1 M DTT was added, and samples were incubated at 65 °C for 45 minutes. After the samples had cooled, 7.5 ul of iodoacetamide (0.2 M) were added, and the samples were incubated in the dark for 40 minutes at room temperature. At this point 1/10 volume of 12% phosphoric acid was added, and the samples were diluted 6-fold with 90% methanol + 50 mM ammonium bicarbonate. The samples were then loaded on s-trap micro columns (Protify) and the columns […]
were washed 3 times with 150 ul of 90% methanol + 50 mM ammonium bicarbonate. Then, 20 ul of 0.05 g/l of trypsin in 50 mM ammonium bicarbonate were added to the columns, and the samples were incubated at 47 °C for 90 minutes. Then 40 ul of 50 mM ammonium bicarbonate was added, followed by centrifugation and addition of 1 ul of 0.5 g/l trypsin to the eluate, which was incubated at 37C overnight. The column itself was then eluted using 40 ul of 0.2% formic acid and 40 ul 0.2% formic acid in 50% acetonitrile into a separate tube, which was kept at 4 °C. The two eluates were then combined and evaporated before running on LC/MS/MS.
Running samples on LC/MS/MS:
ULC/MS grade solvents were used for all chromatographic steps. Each sample was loaded using split-less nano-Ultra Performance Liquid Chromatography (10 kpsi nanoAcquity; Waters, Milford, MA, USA). The mobile phase was: A) H2O + 0.1% formic acid and B) acetonitrile + 0.1% formic acid. Desalting of the samples was performed online using a reversed-phase Symmetry C18 […]

Compound: C#CCCNC(=O)C(=C)CN1CCC[C@@H](n2nc(-c3ccc(Oc4ccccc4)cc3)c3c(N)ncnc32)C1 [1b]
- Log2(fold enrichment) (ACACA_HUMAN group, 1b relative to pretreatment by ibrutinib): 0.4315
- Log2(fold enrichment) (ACACA_HUMAN group, 1b relative to treatment with DMSO): -0.2749
- Log2(fold enrichment) (ACTG_HUMAN group, 1b relative to pretreatment by ibrutinib): 0.2725
- Log2(fold enrichment) (ACTG_HUMAN group, 1b relative to treatment with DMSO): 0.2915
- Log2(fold enrichment) (ALDOA_HUMAN, 1b relative to pretreatment by ibrutinib): 0.4926
- Log2(fold enrichment) (ALDOA_HUMAN, 1b relative to treatment with DMSO): 0.06327
- Log2(fold enrichment) (ANXA2_HUMAN group, 1b relative to pretreatment by ibrutinib): -0.9011
- Log2(fold enrichment) (ANXA2_HUMAN group, 1b relative to treatment with DMSO): 0.8548
- Log2(fold enrichment) (B3GT4_HUMAN, 1b relative to pretreatment by ibrutinib): 0.1405
- Log2(fold enrichment) (B3GT4_HUMAN, 1b relative to treatment with DMSO): 2.2518
- Log2(fold enrichment) (CAD15_HUMAN, 1b relative to pretreatment by ibrutinib): -2.753
- Log2(fold enrichment) (CAD15_HUMAN, 1b relative to treatment with DMSO): -0.7397
- Log2(fold enrichment) (CRERF_HUMAN, 1b relative to pretreatment by ibrutinib): -0.1083
- Log2(fold enrichment) (CRERF_HUMAN, 1b relative to treatment with DMSO): -0.06839
- Log2(fold enrichment) (CX062_HUMAN, 1b relative to pretreatment by ibrutinib): 3.426
- Log2(fold enrichment) (CX062_HUMAN, 1b relative to treatment with DMSO): 2.336
- Log2(fold enrichment) (CYB5B_HUMAN, 1b relative to pretreatment by ibrutinib): 4.3203
- Log2(fold enrichment) (CYB5B_HUMAN, 1b relative to treatment with DMSO): 3.916
- Log2(fold enrichment) (CYFP1_HUMAN, 1b relative to pretreatment by ibrutinib): 5.178
- Log2(fold enrichment) (CYFP1_HUMAN, 1b relative to treatment with DMSO): 4.841
- Log2(fold enrichment) (DCD_HUMAN, 1b relative to pretreatment by ibrutinib): 0.833
- Log2(fold enrichment) (DCD_HUMAN, 1b relative to treatment with DMSO): 3.261
- Log2(fold enrichment) (DESP_HUMAN, 1b relative to pretreatment by ibrutinib): -0.03598
- Log2(fold enrichment) (DESP_HUMAN, 1b relative to treatment with DMSO): 1.065
- Log2(fold enrichment) (DSC1_HUMAN, 1b relative to pretreatment by ibrutinib): -0.2037
- Log2(fold enrichment) (DSC1_HUMAN, 1b relative to treatment with DMSO): 0.5233
- Log2(fold enrichment) (DSG1_HUMAN, 1b relative to pretreatment by ibrutinib): -0.7862
- Log2(fold enrichment) (DSG1_HUMAN, 1b relative to treatment with DMSO): 1.658
- Log2(fold enrichment) (EF1A3_HUMAN group, 1b relative to pretreatment by ibrutinib): 0.1605
- Log2(fold enrichment) (EF1A3_HUMAN group, 1b relative to treatment with DMSO): 0.3209
- Log2(fold enrichment) (ELAF_HUMAN, 1b relative to pretreatment by ibrutinib): -0.07576
- Log2(fold enrichment) (ELAF_HUMAN, 1b relative to treatment with DMSO): 3.288
- Log2(fold enrichment) (ENOA_HUMAN, 1b relative to pretreatment by ibrutinib): 0.1924
- Log2(fold enrichment) (ENOA_HUMAN, 1b relative to treatment with DMSO): 0.2037
- Log2(fold enrichment) (EP400_HUMAN, 1b relative to pretreatment by ibrutinib): 1.834
- Log2(fold enrichment) (EP400_HUMAN, 1b relative to treatment with DMSO): -0.06967
- Log2(fold enrichment) (FABP5_HUMAN, 1b relative to pretreatment by ibrutinib): -0.02939
- Log2(fold enrichment) (FABP5_HUMAN, 1b relative to treatment with DMSO): 1.253
- Log2(fold enrichment) (G3P_HUMAN, 1b relative to pretreatment by ibrutinib): 0.2104
- Log2(fold enrichment) (G3P_HUMAN, 1b relative to treatment with DMSO): 0.2112
- Log2(fold enrichment) (GRAH_HUMAN, 1b relative to pretreatment by ibrutinib): -0.3838
- Log2(fold enrichment) (GRAH_HUMAN, 1b relative to treatment with DMSO): 1.151
- Log2(fold enrichment) (GSTP1_HUMAN, 1b relative to pretreatment by ibrutinib): 0.8097
- Log2(fold enrichment) (GSTP1_HUMAN, 1b relative to treatment with DMSO): 1.004
- Log2(fold enrichment) (HS90B_HUMAN group, 1b relative to pretreatment by ibrutinib): 0.4589
- Log2(fold enrichment) (HS90B_HUMAN group, 1b relative to treatment with DMSO): 0.7364
- Log2(fold enrichment) (HSP7C_HUMAN, 1b relative to pretreatment by ibrutinib): 0.6921
- Log2(fold enrichment) (HSP7C_HUMAN, 1b relative to treatment with DMSO): 0.6391
- Log2(fold enrichment) (K2C6B_HUMAN, 1b relative to pretreatment by ibrutinib): -0.8867
- Log2(fold enrichment) (K2C6B_HUMAN, 1b relative to treatment with DMSO): 0.6152
- Log2(fold enrichment) (KPYM_HUMAN, 1b relative to pretreatment by ibrutinib): 0.1731
- Log2(fold enrichment) (KPYM_HUMAN, 1b relative to treatment with DMSO): 1.135
- Log2(fold enrichment) (LDHA_HUMAN, 1b relative to pretreatment by ibrutinib): 0.2369
- Log2(fold enrichment) (LDHA_HUMAN, 1b relative to treatment with DMSO): -0.2458
- Log2(fold enrichment) (LEG9C_HUMAN group, 1b relative to pretreatment by ibrutinib): 1.455
- Log2(fold enrichment) (LEG9C_HUMAN group, 1b relative to treatment with DMSO): -0.9819
- Log2(fold enrichment) (MCCA_HUMAN, 1b relative to pretreatment by ibrutinib): 0.4599
- Log2(fold enrichment) (MCCA_HUMAN, 1b relative to treatment with DMSO): -0.3745
- Log2(fold enrichment) (MMRN2_HUMAN, 1b relative to pretreatment by ibrutinib): -0.0371
- Log2(fold enrichment) (MMRN2_HUMAN, 1b relative to treatment with DMSO): 0.08276
- off-targets found in pull-down proteomics (Mino cells, 100 nM 1b): BLK, MCAT, and ADK
- Log2(fold enrichment) (NEUM_HUMAN, 1b relative to pretreatment by ibrutinib): 2
- Log2(fold enrichment) (NEUM_HUMAN, 1b relative to treatment with DMSO): 0.3281
- Log2(fold enrichment) (NPM_HUMAN, 1b relative to pretreatment by ibrutinib): 1.109
- Log2(fold enrichment) (NPM_HUMAN, 1b relative to treatment with DMSO): 0.4515
- Log2(fold enrichment) (PIP_HUMAN, 1b relative to pretreatment by ibrutinib): 0.6558
- Log2(fold enrichment) (PIP_HUMAN, 1b relative to treatment with DMSO): -0.01924
- Log2(fold enrichment) (PLAK_HUMAN, 1b relative to pretreatment by ibrutinib): 0.152
- Log2(fold enrichment) (PLAK_HUMAN, 1b relative to treatment with DMSO): 1.616
- Log2(fold enrichment) (PRDX2_HUMAN group, 1b relative to pretreatment by ibrutinib): -0.09254
- Log2(fold enrichment) (PRDX2_HUMAN group, 1b relative to treatment with DMSO): -0.2676
- Log2(fold enrichment) (REL_HUMAN, 1b relative to pretreatment by ibrutinib): 1.348
- Log2(fold enrichment) (REL_HUMAN, 1b relative to treatment with DMSO): -0.2147
- Log2(fold enrichment) (RL13_HUMAN, 1b relative to pretreatment by ibrutinib): 0.7491
- Log2(fold enrichment) (RL13_HUMAN, 1b relative to treatment with DMSO): 0.2396
- Log2(fold enrichment) (RL15_HUMAN, 1b relative to pretreatment by ibrutinib): 0.2388
- Log2(fold enrichment) (RL15_HUMAN, 1b relative to treatment with DMSO): 0.9031
- Log2(fold enrichment) (RL18_HUMAN, 1b relative to pretreatment by ibrutinib): 0.6086
- Log2(fold enrichment) (RL18_HUMAN, 1b relative to treatment with DMSO): -0.373
- Log2(fold enrichment) (RL40_HUMAN group, 1b relative to pretreatment by ibrutinib): -1.022
- Log2(fold enrichment) (RL40_HUMAN group, 1b relative to treatment with DMSO): 0.218
- Log2(fold enrichment) (S10A8_HUMAN, 1b relative to pretreatment by ibrutinib): 0.2414
- Log2(fold enrichment) (S10A8_HUMAN, 1b relative to treatment with DMSO): 0.2312
- Log2(fold enrichment) (S10A9_HUMAN, 1b relative to pretreatment by ibrutinib): 0.07875
- Log2(fold enrichment) (S10A9_HUMAN, 1b relative to treatment with DMSO): 2.006
- Log2(fold enrichment) (SYFM_HUMAN, 1b relative to pretreatment by ibrutinib): 0.9276
- Log2(fold enrichment) (SYFM_HUMAN, 1b relative to treatment with DMSO): -1.069
- Log2(fold enrichment) (TBA1B_HUMAN group, 1b relative to pretreatment by ibrutinib): 0.8267
- Log2(fold enrichment) (TBA1B_HUMAN group, 1b relative to treatment with DMSO): 1.164
- Log2(fold enrichment) (TBB5_HUMAN group, 1b relative to pretreatment by ibrutinib): 1.023
- Log2(fold enrichment) (TBB5_HUMAN group, 1b relative to treatment with DMSO): 0.6602
- Log2(fold enrichment) (TGM3_HUMAN, 1b relative to pretreatment by ibrutinib): -0.2702
- Log2(fold enrichment) (TGM3_HUMAN, 1b relative to treatment with DMSO): 0.4648
- Log2(fold enrichment) (THIO_HUMAN, 1b relative to pretreatment by ibrutinib): 0.6478
- Log2(fold enrichment) (THIO_HUMAN, 1b relative to treatment with DMSO): 0.5583
- Log2(fold enrichment) (TPIS_HUMAN, 1b relative to pretreatment by ibrutinib): 1.866
- Log2(fold enrichment) (TPIS_HUMAN, 1b relative to treatment with DMSO): 2.762
- Log2(fold enrichment) (VDAC2_HUMAN, 1b relative to pretreatment by ibrutinib): 0.298
- Log2(fold enrichment) (VDAC2_HUMAN, 1b relative to treatment with DMSO): 2.794
- Log2(fold enrichment) (ZNT4_HUMAN, 1b relative to pretreatment by ibrutinib): 0.6391
- Log2(fold enrichment) (ZNT4_HUMAN, 1b relative to treatment with DMSO): 0.7876

Reference: PMC8662641, “Site-Specific Labeling of Endogenous Proteins Using CoLDR Chemistry” (Journal of the American Chemical Society, 2021)
